The test system of experiment [1] is Septoria nodorum (Glume blotch). Kind of experiment: Septoria nodorum wheat leaf segment test, preventive fungicidal activity. The experiment is classed as cell-based. The following applies: tested dose range 200 to 22 ppm, wheat leaf segments, assessed 4 dpi. The method, then:
Septoria nodorum (Glume blotch): Wheat leaf segments are placed on agar in a multiwell plate (24-well format) and sprayed with test solutions. After drying, the leaf disks are inoculated with a spore suspension of the fungus. After appropriate incubation the activity of a compound is assessed 4 dpi (days after inoculation) as preventive fungicidal activity. Within the tested dose range of 200 to 22 ppm the Compound No. 82 inhibited at least 80% of fungal growth.

Experiment [2] relates to Plasmopara viticola on vines. Briefly: Action against Plasmopara viticola on vines, residual-protective action (D-1a). The experiment is classed as in vivo. The following applies: vine seedlings sprayed 24 hours before infection, evaluated after 6 days, untreated plants attack 60-100%. As for the experimental part: (§1) Action Against Plasmopara Viticola on Vines
A) Residual-Protective Action
Fungus infestation is evaluated after incubation for 6 days at 95-100% relative humidity and +20° C.

Experiment [3] concerns Plasmopara viticola on vines. Briefly: Action against Plasmopara viticola on vines, residual-curative action (D-1b). The experiment is classed as in vivo. As to conditions: vine seedlings sprayed 24 hours after infection, evaluated 6 days after infection, untreated plants attack 60-100%. As for the experimental part: as §1
b) Residual-Curative Action
Vine seedlings are infected at the 4- to 5-leaf stage with a sporangia suspension of the fungus. […] After the spray coating has dried, the treated plants are placed in the humidity chamber again. Fungus infestation is evaluated 6 days after infection.

Structures are written as SMILES.

In the case of `CCOc1ccc(OCC(C)(NS(=O)(=O)Cc2ccccc2)C(=O)OC)cc1` (stereo not shown) [compound 082, 3-(4-Ethoxy-phenoxy)-2-methyl-2-phenylmethanesulfonylamino-propionic Acid Methyl Ester], the “inhibition of fungal growth” value in experiment [1] is on record as “at least 80%”. For `CCOc1ccc(OCC(C)(NS(=O)(=O)Cc2ccccc2)C(=O)N(C)OC)cc1` (stereo not shown) [compound 083, 3-(4-Ethoxy-phenoxy)-N-methoxy-2,N-dimethyl-2-phenylmethanesulfonylamino-propionamide], the inhibition at 200 ppm in experiment [2] and in experiment [3] was 80 to 100% in each case. Regarding `C#CCNC(=O)C(C)(COc1ccc(OCC)cc1)NS(=O)(=O)Cc1ccccc1` (stereo not shown) [compound 087, 3-(4-Ethoxy-phenoxy)-2-methyl-2-phenylmethanesulfonylamino-N-prop-2-ynyl-propionamide], the inhibition at 200 ppm in experiment [2] and in experiment [3] was 80 to 100% throughout. As to `CC(COc1ccc(-n2cncn2)cc1)(NS(=O)(=O)Cc1ccccc1)C(=O)O` (stereo not shown) [compound 100, 2-Methyl-2-phenylmethanesulfonylamino-3-(4-[1,2,4]triazol-1-yl-phenoxy)-propionic Acid], the inhibition at 200 ppm in experiment [2] and in experiment [3] was 80 to 100% in each case.

The values are drawn from US7884103B2 (priority 2003, dated 2011).
